Experimental data published in BindingDB's records for doi:10.1021/jm101401a (Sanford-Burnham Medical Research Institute, 2011).

Target: T1, Mannose-6-phosphate isomerase (Homo sapiens, UniProt P34949)
T1 sequence (P34949 whole entry): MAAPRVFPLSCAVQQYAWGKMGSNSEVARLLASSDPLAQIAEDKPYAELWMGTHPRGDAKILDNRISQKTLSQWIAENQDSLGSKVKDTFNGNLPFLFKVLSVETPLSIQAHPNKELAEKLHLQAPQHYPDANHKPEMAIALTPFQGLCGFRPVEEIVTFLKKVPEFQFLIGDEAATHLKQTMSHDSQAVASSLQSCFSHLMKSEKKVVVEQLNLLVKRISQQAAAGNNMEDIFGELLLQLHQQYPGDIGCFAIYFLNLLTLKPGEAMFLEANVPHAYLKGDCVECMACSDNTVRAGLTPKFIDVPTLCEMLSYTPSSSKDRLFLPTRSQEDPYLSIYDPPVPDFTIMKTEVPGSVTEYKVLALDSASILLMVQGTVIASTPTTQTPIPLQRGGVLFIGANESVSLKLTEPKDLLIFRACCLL
Test: Inhibition of human purified phosphomannose isomerase

IC50 [µM]	Compound
> 10	C=CCn1c(=O)c(=Cc2cc(OC)c(OC)c(OC)c2)s/c1=C(/C#N)c1nc2ccccc2n1C [2-(1-methyl-2-benzimidazolyl)-2-[4-oxo-3-prop-2-enyl-5-[(3,4,5-trimethoxyphenyl)methylidene]-2-thiazolidinylidene]acetonitrile]
> 10	Oc1c(-c2ccccc2)sc2ccccc12 [2-phenyl-1-benzothiophen-3-one]
